Data set [1] is described as follows: Cytotoxicity assay (Alamar blue), COS-7. It is filed as cell-based, Monkey. The settings on record: chlorocebus aethiops, COS-7 cells; COS7, 24 h; read-out: In vitro cytotoxicity CC50 ± SD COS7. Here is the method: (§1) Cell toxicity was determined using Alamar blue, as previously described (McMillian et al., 2002). COS-7 cells were seeded as 7000 cells per well in black wall clear bottom 96-well plates in DMEM medium (Life Technologies Australia) with 10% FBS. HepG2 and HEK293 cell lines, from ATCC, were seeded as 5000 cells per well in black wall clear bottom 384-well cell culture plates in DMEM with 1% FBS. Cells were cultured for 24 h at 37° C., 5% CO2. A serial dilution of compounds was added, with a final DMSO concentration adjusted to 0.5% v/v. Cells were incubated for another 24 h. 1 Triton X-100 was used as negative control, and 0.5% DMSO as positive control. 5 μM Alamar blue was added to each well and fluorescence was measured (λexc=560 nm, λem=590 nm) after 2 h incubation at 37° C. Data were analysed using Prism software.

In data set [2] the target is SOX18-MEF2C interaction (Homo sapiens (Human), UniProt P35713). Nature of the data set: ALPHAScreen SOX18-MEF2C protein-protein interaction. The data set is classed as binding. The settings on record: read-out: SOX18-MEF2C interaction disruption IC50. An excerpt:
Proteins were genetically encoded with enhanced GFP (GFP), mCherry and cMyc (myc) tags, and cloned into cell free expression Gateway destination vectors: N-terminal GFP tagged (pCellFree_G03), N-terminal Cherry-cMyc (pCellFree_G07) and C-terminal Cherry-cMyc tagged (pCellFree_G08) (Gagoski et al., 2015). Human RBPJ (BC020780) and MEF2C (BC026341) Open Reading Frames (ORFs) were sourced from the Human ORFeome collection, version 1.1 and 5.1, and the Human Orfeome collaboration OCAA collection (Open Biosystems), as previously described (Sierecki et al., 2013) and cloned at the ARVEC facility, UQ Diamantina Institute. […]
ALPHAScreen was performed as previously described (Sierecki et al., 2014, Sierecki et al., 2013). […] Percentage of interaction was calculated as: (I_cpd/I_DMSO)×100 from 3 independent experiments.
ALPHAScreen was performed as previously described (Sierecki et al., 2014, Sierecki et al., 2013), using the cMyc detection kit and Proxiplate-384 Plus plates (PerkinElmer). […] The ALPHAScreen signal was measured on an Envision Plate Reader (PerkinElmer), using manufacturer's recommended settings (λexc=680/30 nm for 0.18 s, λem=570/100 nm after 37 ms). […]
I is the highest signal level (top of the hook effect curve) and Ineg is the lowest (background) signal level. […] Percentage of interaction was calculated as: […]
(In general: Bead proximity is the source of the signal in Alpha formats.)

Data set [3] can be described thus: Critical micelle concentration (CMC) assay. It is filed as physicochemical. Particulars: threshold concentration of micelle formation in 200 mM NaCl or FP buffer. Here is the method:
Critical micelle concentration was determined based on the incorporation of fluorescent 1,6-diphenyl-1,3,5-hexatriene (DPH) into micelles (Chattopadhyay and London, 1984). Small molecules and positive controls (neutral detergent Triton X100 and anionic detergent SDS) were cascade diluted in low binding 96-well plates from 1000 μM to 0.1 μM. Dilutions were performed in 200 mM NaCl or FP buffer. DPH was supplemented at 5 μM into black 384-well plates. Fluoresence intensity (λexc=360 nm, λem=430 nm) was measured following a 30-min incubation at room temperature, to graphically estimate CMC transition.

For data set [4], the system named is COS-7 cells. Nature of the data set: Cytotoxicity assay (Alamar blue), COS-7. The settings on record: COS7, 24 h; read-out: In vitro cytotoxicity CC50 ± SD COS7. The data set is classed as cell-based, Monkey. As for the experimental part: as §1
On the technique in general: Resazurin is reduced to fluorescent resorufin, in cell work by metabolically active cells.

Data set [5] concerns the target human COX2 (Homo sapiens (Human), UniProt P35354). Nature of the data set: COX2 enzymatic assay. It is filed as biochemical. Particulars: up to a concentration of 200 μM. As for the experimental part:
COX inhibition activity was measured using COX1 and COX2 inhibitor screening assay kits from Cayman Chemical Company (Ref #701090 and 701080). All compounds were tested in quadruplicate at a single 200 μM concentration in 2% v/v final DMSO. Compounds were preincubated with ovine COX1 or human COX2 at 37° C. for 10 min before incubation with COX substrate arachidonic acid for another 3 min. Reactions were stopped by addition of concentrated hydrochloric acid. Prostanoid standard curve was prepared and enzyme immunoassay performed as per manufacturer's description. […] Prostanoid standards values were plotted as logit (B/B0) versus log concentrations and fitted with linear regression using GraphPad Prism version 6.0. Standard curve linear fit was used to calculate each samples concentrations.

In data set [6] the test system is HEK293. Nature of the data set: Cytotoxicity assay (Alamar blue), HEK293. It is filed as cell-based. The settings on record: HEK293, 24 h. In outline:
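COS-7 cells in DMEM with 10% FBS; HepG2 and HEK293 in DMEM with 1% FBS. After 24 h plating, serial compound dilutions (0.5% DMSO final) added for 24 h at 37° C. Viability from Alamar blue 5 μM, fluorescence 560/590 nm read after 2 h.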

SOX18-MEF2C interaction, sequence (P35713 whole entry): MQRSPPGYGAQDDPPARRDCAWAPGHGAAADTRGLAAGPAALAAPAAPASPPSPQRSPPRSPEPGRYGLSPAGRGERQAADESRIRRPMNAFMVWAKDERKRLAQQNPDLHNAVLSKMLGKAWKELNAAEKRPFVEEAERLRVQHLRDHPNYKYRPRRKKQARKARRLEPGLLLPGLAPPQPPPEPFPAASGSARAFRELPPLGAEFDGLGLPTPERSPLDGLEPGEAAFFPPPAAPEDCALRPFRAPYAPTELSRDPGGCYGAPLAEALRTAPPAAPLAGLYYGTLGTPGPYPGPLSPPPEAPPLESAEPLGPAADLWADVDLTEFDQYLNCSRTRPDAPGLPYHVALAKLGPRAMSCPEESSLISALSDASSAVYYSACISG
human COX2, sequence (P35354 18-604): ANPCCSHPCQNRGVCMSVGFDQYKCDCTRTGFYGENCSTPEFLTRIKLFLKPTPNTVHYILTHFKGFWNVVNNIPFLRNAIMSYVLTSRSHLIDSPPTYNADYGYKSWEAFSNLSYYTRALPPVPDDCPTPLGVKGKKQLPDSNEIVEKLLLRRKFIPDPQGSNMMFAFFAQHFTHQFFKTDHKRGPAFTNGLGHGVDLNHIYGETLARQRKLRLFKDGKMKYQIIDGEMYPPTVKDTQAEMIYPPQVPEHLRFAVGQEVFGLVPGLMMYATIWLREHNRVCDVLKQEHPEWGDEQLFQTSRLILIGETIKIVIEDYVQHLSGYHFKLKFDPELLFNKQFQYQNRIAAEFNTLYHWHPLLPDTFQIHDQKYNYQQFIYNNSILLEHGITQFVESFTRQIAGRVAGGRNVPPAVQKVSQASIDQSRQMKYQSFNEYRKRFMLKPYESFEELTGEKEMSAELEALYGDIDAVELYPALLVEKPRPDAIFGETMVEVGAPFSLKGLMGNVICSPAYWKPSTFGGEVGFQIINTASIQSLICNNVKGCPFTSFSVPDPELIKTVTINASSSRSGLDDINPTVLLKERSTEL

For the compound `O=C(O)c1ccccc1Nc1cccc(C(F)(F)F)c1` [Flufenamic acid, reference compound], the CC50 (usually the concentration that lowers cell viability or growth by half) at 24 h in data set [1] is 65 ± 2.7 µM. Further, the IC50 (as a rule, the midpoint of a concentration-inhibition curve) in data set [2] is 29.1 µM.
As to `O=C(O)c1c(O)cccc1COCCc1ccccc1` [Sm5], the CMC in data set [3] was above 1000 µM. Also, in data set [4], the CC50 is above 200 µM. Moreover, in data set [5], the COX-2 inhibitory activity entry is listed as “None of the SOX18 inhibitor display any COX-1 or COX-2 inhibitory activity”.
For the compound `CCN(CC)C(=O)c1c(O)cc(O)cc1CCc1ccc2ccccc2c1` [Sm26, N,N,diethyl-2,4-hydroxy-6-(2-(naphthalen-2-yl)ethyl)benzamide], the CC50 in data set [6] is 23.5 µM.

The record behind these values is patent publication US20240002326A1, “COMPOUNDS AND USE THEREOF IN METHODS OF TREATMENT” (The University of Queensland, priority 2016, published 2024).
